{"source": "patent US20050096282A1", "about": "“Adeno-associated virus-delivered ribozyme compositions and methods for the treatment of retinal diseases” (priority 1997, published 2005)", "key": {"[1]": {"tested_on": "HREC", "assay": "HREC proliferation, cell count", "format": "cell-based, human", "conditions": "for increase in HREC number: agonist alone, 48 hr; for Proliferation Cell Count: HREC, agonists 10 μm, with NECA: CPX 20 nM, SCH 60 nM, XAC, Enprofylline, JW V108 10 μm, * p < 0.005 vs untreated", "procedure": "(§1) The subtype of adenosine receptor (A2B) that mediates the proliferative effect of adenosine on HREC was determined by the following studies. […] In contrast, neither the A2A adenosine receptor agonist CGS21680 (2-p-(2-carboxyethyl) phenethylamino-5′-N-ethylcarboxamidoadenosine) at concentrations ranging from 10 nM to 10 μM, nor the A1 adenosine receptor agonist CPA (N^6-cyclopentyladenosine) at concentrations ranging from 10 nM to 10 μM increased BrdU incorporation by HRECs. […] In contrast, neither the selective A1 adenosine receptor antagonist CPX (8-cyclopentyl-1,3-dipropylxanthine) at 20 nM, nor the selective A2A adenosine receptor antagonist SCH58261 (5-amino-7-(2-phenylethyl)-2-(2-furyl)-pyrazolo(4,3-E)-1,2,4-trizolo(1,5-c) pyrimidine) at 60 nM attenuated the stimulatory effect of NECA on BrdU incorporation by HRECs. These findings indicate that the proliferative effects of NECA are mediated by the A2B adenosine receptor in HREC in culture (Table 3).\nThe data for cell counts were consistent with those for BrdU incorporation. […] These compounds, like XAC, blocked the proliferative effects of NECA as measured by cell counts, supporting that the proliferative effects of NECA on HREC are mediated by the adenosine A2B receptor (Table 3)."}, "[2]": {"tested_on": "HREC", "assay": "BrdU incorporation (DNA synthesis) in HRECs", "format": "cell-based, human", "conditions": "for Proliferation BrdU Incorporation: HREC, agonists 10 μm, with NECA: CPX 20 nM, SCH 60 nM, XAC 10 μm, * p < 0.005 vs untreated", "procedure": "as §1"}, "[3]": {"tested_on": "HREC", "assay": "cAMP content of intact HRECs", "format": "cell-based, human", "source_text": "The cAMP content of intact HRECs following treatment with adenosine receptor agonists and antagonists was next examined. […] The effect of selective A1 and A2A adenosine receptor antagonists on NECA-induced accumulation of cAMP was also examined."}, "[4]": {"tested_on": "HREC", "assay": "ERK/MAPK activation in HREC, Western blot", "format": "cell-based, human", "conditions": "for effect on NECA-stimulated ERK activation: HREC pretreated with antagonist or inhibitor, then NECA; for basal ERK activation / ERK activation by agonist: HREC; for basal ERK activation: CGS 1-10 μM, H-89 30 min pretreatment; for ERK activation by agonist: agonist alone", "procedure": "HREC were serum-starved for 24 hr and pre-treated for 20 min with 1 U/mL adenosine deaminase prior to adding NECA. Activated ERK/MAPK was visualized on Western blots by enhanced chemiluminescence using EC10 monoclonal antibody;\nHRECs were serum-starved for 24 hr and pre-treated with adenosine deaminase (ADA, 1 U/mL) for 20 min, incubated with the antagonists in the presence of ADA for 10 min. NECA (1 nM-10 μM, 10 min) was used to activate ERK.\nIn order to determine the intracellular signaling pathways activated by NECA that regulate ERK activity, we pretreated cells for 30 min with the ERK/MPAK kinase (MEK) inhibitor PD98059 or the PKA inhibitor H-89 and stimulated with NECA for 5 min.\nCells were pre-treated with both antagonists for 10 min and stimulated with increasing concentrations of NECA."}, "[5]": {"tested_on": "HREC", "assay": "CREB phosphorylation at Ser133 in HREC, western blot", "format": "cell-based, human", "conditions": "HREC pretreated", "source_text": "Phosphorylation of cAMP response element binding protein (CREB) at Ser^133 was examined following NECA stimulation in order to determine whether activation of cAMP pathways by NECA occurred independently of ERK activation. Cells were pretreated with PD98059 or H-89 and assayed for active CREB by western blot."}, "[6]": {"tested_on": "oxygen-induced retinal neovascularization", "assay": "Oxygen-induced retinal neovascularization in the neonatal mouse", "format": "in vivo", "conditions": "daily IP 30 mg/Kg body weight; vs uninjected control", "source_text": "The potential efficacy of administering adenosine receptor antagonists to reduce retinal neovascularization brought on by ischemic insult was examined. In the neonatal mouse model of oxygen-induced retinopathy, 7-day-old mice are placed with their nursing dams in a 75% oxygen atmosphere for 5 days. Upon return to normal air, these mice develop retinal neovascularization, with peak development occurring 5 days after their return to normoxia. During this time, the animals receive by daily intaperitoneal injection a pharmacologically relevant concentration of adenosine receptor antagonist or vehicle (0.15% vol./vol. DMSO in normal saline) alone. Exemplary antagonists tested include XAC and 3-n-propylxanthine (Enprofylline), and JW V108, both at a concentration of 30 mg/Kg of body weight. […]\nIndividuals masked to the identity of treatment counted all cell nuclei above the inner limiting membrane for all 20 sections from each eye. […] The efficacy of treatment with a particular antagonist was then calculated as the fraction of total nuclei in antagonist or vehicle treatment over total nuclei in uninjected control. […] Whole retinas from these eyes were then flat-mounted for qualitative assessment of retinal neovascularization by fluorescence microscopy."}, "[7]": {"tested_on": "IGF-I (insulin-like growth factor-1) receptor mRNA", "assay": "Ribozyme kinetic analysis, IGF1", "format": "biochemical", "conditions": "target GUACGUCUUCCAU", "source_text": "(§2) The chief characteristic of diabetic retinopathy is retinal neovascularization-the pathologic spread of blood vessels in the eye. Unique ribozymes have been developed which target the mRNAs that encode various proteins involved in this process. These include ribozymes directed at the wild-type mRNA for the adenosine A2b receptor, for IGF-I (insulin-like growth factor-1) receptor, for inducible nitric oxide synthase (iNOS), and for several integrins implicated in retinal neovascularization (e.g., alpha1, alpha3, alphaV). Also shown in Table 7 are the analyses of P347S ribozymes, that are specific for another mutant form of the rod opsin polypeptide."}, "[8]": {"tested_on": "HREC", "assay": "HREC chemotaxis", "format": "cell-based, human", "source_text": "The role of the A2B receptor was further characterized by examining the effects of the A2B antagonists JW V108 and Enprofylline on HREC chemotaxis, capillary tube formation and signal transduction pathways following stimulation with the adenosine analogue NECA."}, "[9]": {"tested_on": "HREC", "assay": "VEGF protein in HREC after adenosine receptor agonists and antagonists", "format": "cell-based, human", "conditions": "agonists 10 μm, with NECA: CPX 20 nM, SCH 60 nM, XAC 10 μm, * p < 0.005 vs untreated"}, "[10]": {"tested_on": "HREC", "assay": "VEGF mRNA in HREC after adenosine receptor agonists and antagonists", "format": "cell-based, human", "conditions": "agonists 10 μm, with NECA: CPX 20 nM, SCH 60 nM, XAC 10 μm, * p < 0.005 vs untreated"}, "[11]": {"tested_on": "P347S rod opsin mRNA target UGGCCUCGGCCUA", "assay": "Ribozyme kinetic analysis, P347S human", "format": "biochemical", "conditions": "mean", "source_text": "as §2"}}, "note": "“Also recorded” adds a separate entry of the source."}
{"molecule": "CCCn1c(=O)c2[nH]c(-c3ccc(OCC(=O)NCCN)cc3)nc2n(CCC)c1=O", "note": "[XAC, xanthine amine congener]", "values": [{"measurement": "inhibition of increase in cell number induced by NECA", "setting": "[1]; 10 μM NECA", "value": "significantly inhibited"}, {"measurement": "attenuation of NECA-stimulated BrdU incorporation by HRECs", "setting": "[2]; XAC 10 μM, CPX 20 nM, SCH58261 60 nM", "value": "completely prevented"}, {"measurement": "inhibition of NECA-induced increase in cAMP content in HRECs", "setting": "[3]; NECA 10 μM", "value": "completely blocked"}, {"measurement": "effect on NECA-stimulated ERK activation", "setting": "[4]", "value": "decreased ERK activation by high concentrations of NECA"}, {"measurement": "CREB activation (phosphorylation) following NECA stimulation", "setting": "[5]", "value": "blocked CREB phosphorylation"}, {"measurement": "inhibition of oxygen-induced retinal neovascularization", "setting": "[6]", "value": 54, "unit": "%"}]}
{"molecule": "IGF1 Rz 2: ribozyme GGAACUGAUGAGCCGUUCGCGGCGAAACGUAC (SEQ ID NO:101), IGF-I receptor mRNA (RNA, backbone not given here)", "values": [{"measurement": "Km", "setting": "[7]", "value": 9.76, "unit": "µM"}, {"measurement": "Vmax", "setting": "[7]", "value": 27.6, "unit": "nM/min"}, {"measurement": "kcat", "setting": "[7]", "value": 18.4, "unit": "min − 1"}]}
{"molecule": "O=S(=O)(NCCNC/C=C/c1ccc(Br)cc1)c1cccc2cnccc12", "note": "[Ribozyme H-89]", "values": [{"measurement": "effect on NECA-stimulated ERK activation", "setting": "[4]", "value": "did not block"}, {"measurement": "basal ERK activation", "setting": "[4]", "value": "increased basal ERK activation"}, {"measurement": "CREB activation (phosphorylation) following NECA stimulation", "setting": "[5]", "value": "blocked CREB phosphorylation"}]}
{"molecule": "CCNC(=O)[C@H]1O[C@@H](n2cnc3c(N)ncnc32)[C@H](O)[C@@H]1O", "note": "[NECA]", "values": [{"measurement": "increase in HREC number", "setting": "[1]", "value": "concentration-dependent increase in HREC number"}, {"measurement": "increase of BrdU incorporation (DNA synthesis) by HRECs", "setting": "[2]; agonist alone, 48 hr, CGS21680 and CPA 10 nM to 10 μM", "value": "concentration-dependent increase of DNA synthesis"}, {"measurement": "EC50", "setting": "[3]; intact HRECs, read-out: EC50 for increase of cAMP content of HRECs", "value": 24, "unit": "µM"}, {"measurement": "ERK activation by agonist", "setting": "[4]", "value": "dose-dependent increase in ERK activation; also recorded: transient activation of ERK"}, {"measurement": "HREC chemotaxis induced by agonist", "setting": "[8]", "value": "induced HREC chemotaxis in a concentration-dependent manner"}]}
{"molecule": "OC[C@H]1O[C@@H](n2cnc3c(NC4CCCC4)ncnc32)[C@H](O)[C@@H]1O", "note": "[CPA, N^6-cyclopentyladenosine]", "values": [{"measurement": "Proliferation Cell Count", "setting": "[1]", "value": "0.9 ± 0.04", "unit": "fold change vs. untreated"}, {"measurement": "increase in HREC number", "setting": "[1]", "value": "neither CGS21680 nor CPA caused an increase in cell number"}, {"measurement": "Proliferation BrdU Incorporation", "setting": "[2]", "value": "0.8 ± 0.06", "unit": "fold change vs. untreated"}, {"measurement": "VEGF Protein", "setting": "[9]", "value": "1.1 ± 0.27", "unit": "fold change vs. untreated"}, {"measurement": "VEGF MRNA", "setting": "[10]", "value": "1.1 ± 0.22", "unit": "fold change vs. untreated"}, {"measurement": "ERK activation by agonist", "setting": "[4]", "value": "capable of stimulating ERK"}]}
{"molecule": "CCCn1c(=O)[nH]c(=O)c2[nH]cnc21", "note": "[Enprofylline, 3-n-propylxanthine]", "values": [{"measurement": "effect on NECA-stimulated ERK activation", "setting": "[4]", "value": "completely abolished ERK activation"}, {"measurement": "inhibition of NECA-induced HREC chemotaxis", "setting": "[8]", "value": "inhibited"}, {"measurement": "inhibition of oxygen-induced retinal neovascularization", "setting": "[6]", "value": 70, "unit": "%"}]}
{"molecule": "COc1cccc(-c2cc(=O)c3ccccc3o2)c1N", "note": "[PD98059]", "values": [{"measurement": "effect on NECA-stimulated ERK activation", "setting": "[4]", "value": "abolished ERK activation"}, {"measurement": "CREB activation (phosphorylation) following NECA stimulation", "setting": "[5]", "value": "did not alter CREB activation"}]}
{"molecule": "CCNC(=O)[C@H]1O[C@@H](n2cnc3c(N)nc(NCCc4ccc(CCC(=O)O)cc4)nc32)[C@H](O)[C@@H]1O", "note": "[CGS21680, 2-p-(2-carboxyethyl) phenethylamino-5′-N-ethylcarboxamidoadenosine]", "values": [{"measurement": "Proliferation Cell Count", "setting": "[1]", "value": "1.1 ± 0.03", "unit": "fold change vs. untreated"}, {"measurement": "increase in HREC number", "setting": "[1]", "value": "neither CGS21680 nor CPA caused an increase in cell number"}, {"measurement": "Proliferation BrdU Incorporation", "setting": "[2]", "value": "1.0 ± 0.08", "unit": "fold change vs. untreated"}, {"measurement": "VEGF Protein", "setting": "[9]", "value": "1.3 ± 0.20", "unit": "fold change vs. untreated"}, {"measurement": "VEGF MRNA", "setting": "[10]", "value": "0.8 ± 0.37", "unit": "fold change vs. untreated"}, {"measurement": "CAMP Content", "setting": "[3]; HREC, agonists 10 μm, with NECA: CPX 20 nM, SCH 60 nM, XAC 10 μm, * p < 0.005 vs untreated", "value": "1.1 ± 1.02", "unit": "fold change vs. untreated"}, {"measurement": "effect on cAMP content of HREC", "setting": "[3]; agonist alone, concentrations up to 100 μM", "value": "no significant effect"}, {"measurement": "ERK activation by agonist", "setting": "[4]", "value": "did not activate ERK"}, {"measurement": "basal ERK activation", "setting": "[4]", "value": "reduced the basal ERK levels"}]}
{"molecule": "P347S human: ribozyme UAGGCCCUGAUGAGCCGCUUCGGCGGCAAAGGCCA (SEQ ID NO:103), P347S mutant rod opsin mRNA (listed as RNA, chemistry not given here)", "values": [{"measurement": "Km", "setting": "[11]", "value": 41.9, "unit": "µM"}, {"measurement": "Vmax", "setting": "[11]", "value": 0.00135, "unit": "nM/min"}, {"measurement": "kcat", "setting": "[11]", "value": "1.10E−04", "unit": "min − 1"}]}
